In the CheMixHub viscosity set:
Several values for one entry are separate records, joined by “and”; a condition that tells them apart may be missing. Equal entries are not always repeated.

Assay: xn = mol fraction of the nth substance listed

OCCOCCO + O
Settings	viscosity
293.15 K, 100 kPa, x2 = 0.013	37.31 mPa·s
293.15 K, 100 kPa, x2 = 0.037	35.38 mPa·s and 33.15 mPa·s
293.15 K, 100 kPa, x2 = 0.038	34.7 mPa·s
293.15 K, 100 kPa, x2 = 0.075	34.97 mPa·s
293.15 K, 100 kPa, x2 = 0.082	34.55 mPa·s
298.15 K, 100 kPa, x2 = 0.013	29.02 mPa·s
298.15 K, 100 kPa, x2 = 0.037	27.76 mPa·s
298.15 K, 100 kPa, x2 = 0.075	27.47 mPa·s
298.15 K, 100 kPa, x2 = 0.082	27.12 mPa·s
298.15 K, 101.33 kPa, x2 = 0.1041	25.71 mPa·s
298.15 K, 101.33 kPa, x2 = 0.2105	24.14 mPa·s
298.15 K, 101.33 kPa, x2 = 0.2697	22.9 mPa·s
298.15 K, 101.33 kPa, x2 = 0.4009	19.9 mPa·s
298.15 K, 101.33 kPa, x2 = 0.5145	16.51 mPa·s
298.15 K, 101.33 kPa, x2 = 0.6157	12.99 mPa·s
298.15 K, 101.33 kPa, x2 = 0.7095	9.442 mPa·s
298.15 K, 101.33 kPa, x2 = 0.825	5.193 mPa·s
298.15 K, 101.33 kPa, x2 = 0.9059	2.772 mPa·s
303.15 K, 100 kPa, x2 = 0.013	23.06 mPa·s
303.15 K, 100 kPa, x2 = 0.038	21.92 mPa·s
303.15 K, 100 kPa, x2 = 0.075	21.95 mPa·s
303.15 K, 101 kPa, x1 = 0.002	0.836 mPa·s
303.15 K, 101 kPa, x1 = 0.004	0.863 mPa·s
303.15 K, 101 kPa, x1 = 0.005	0.883 mPa·s
303.15 K, 101 kPa, x1 = 0.007	0.91 mPa·s
303.15 K, 101 kPa, x1 = 0.009	0.938 mPa·s
303.15 K, 101 kPa, x1 = 0.01	0.975 mPa·s and 1.02 mPa·s and 1.076 mPa·s
303.15 K, 101 kPa, x1 = 0.018	1.171 mPa·s
303.15 K, 101.33 kPa, x1 = 0.0004	0.778 mPa·s
303.15 K, 101.33 kPa, x1 = 0.0007	0.785 mPa·s
303.15 K, 101.33 kPa, x1 = 0.0015	0.788 mPa·s
303.15 K, 101.33 kPa, x1 = 0.0027	0.804 mPa·s
303.15 K, 101.33 kPa, x1 = 0.0047	0.836 mPa·s
303.15 K, 101.33 kPa, x1 = 0.0193	1.02 mPa·s
303.15 K, 101.33 kPa, x1 = 0.0548	1.579 mPa·s
303.15 K, 101.33 kPa, x1 = 0.0991	2.467 mPa·s
303.15 K, 101.33 kPa, x1 = 0.1966	4.98 mPa·s
303.15 K, 101.33 kPa, x1 = 0.2956	7.943 mPa·s
303.15 K, 101.33 kPa, x1 = 0.3956	10.97 mPa·s
303.15 K, 101.33 kPa, x1 = 0.4905	13.62 mPa·s
303.15 K, 101.33 kPa, x1 = 0.6406	17.06 mPa·s
303.15 K, 101.33 kPa, x1 = 0.8543	20.37 mPa·s
308.15 K, 100 kPa, x2 = 0.013	18.69 mPa·s
308.15 K, 100 kPa, x2 = 0.037	18.11 mPa·s and 16.84 mPa·s
308.15 K, 100 kPa, x2 = 0.082	17.7 mPa·s
308.15 K, 101 kPa, x1 = 0.002	0.736 mPa·s
308.15 K, 101 kPa, x1 = 0.004	0.753 mPa·s
308.15 K, 101 kPa, x1 = 0.005	0.805 mPa·s
308.15 K, 101 kPa, x1 = 0.007	0.832 mPa·s
308.15 K, 101 kPa, x1 = 0.009	0.867 mPa·s
308.15 K, 101 kPa, x1 = 0.01	0.902 mPa·s and 0.938 mPa·s and 0.991 mPa·s
308.15 K, 101 kPa, x1 = 0.018	1.082 mPa·s
308.15 K, 101 kPa, x1 = 0.02	1.028 mPa·s
308.15 K, 101 kPa, x1 = 0.7525	15.65 mPa·s
308.15 K, 101.33 kPa, x1 = 0.0004	0.704 mPa·s
308.15 K, 101.33 kPa, x1 = 0.0007	0.71 mPa·s
308.15 K, 101.33 kPa, x1 = 0.0015	0.717 mPa·s
308.15 K, 101.33 kPa, x1 = 0.0027	0.73 mPa·s
308.15 K, 101.33 kPa, x1 = 0.0047	0.749 mPa·s
308.15 K, 101.33 kPa, x1 = 0.0193	0.905 mPa·s
308.15 K, 101.33 kPa, x1 = 0.0991	2.107 mPa·s
308.15 K, 101.33 kPa, x1 = 0.1966	4.169 mPa·s
308.15 K, 101.33 kPa, x1 = 0.2956	6.484 mPa·s
308.15 K, 101.33 kPa, x1 = 0.3956	8.911 mPa·s
308.15 K, 101.33 kPa, x1 = 0.4905	10.95 mPa·s
308.15 K, 101.33 kPa, x1 = 0.5794	12.64 mPa·s
308.15 K, 101.33 kPa, x1 = 0.775	15.47 mPa·s
308.15 K, 101.33 kPa, x1 = 0.8543	16.25 mPa·s
308.15 K, 101.33 kPa, x1 = 0.917	16.82 mPa·s
313.15 K, 100 kPa, x2 = 0.013	15.39 mPa·s
313.15 K, 100 kPa, x2 = 0.037	14.96 mPa·s
313.15 K, 100 kPa, x2 = 0.038	15.25 mPa·s
313.15 K, 100 kPa, x2 = 0.075	14.8 mPa·s
313.15 K, 101 kPa, x1 = 0.002	0.67 mPa·s
313.15 K, 101 kPa, x1 = 0.004	0.685 mPa·s
313.15 K, 101 kPa, x1 = 0.005	0.703 mPa·s
313.15 K, 101 kPa, x1 = 0.007	0.738 mPa·s
313.15 K, 101 kPa, x1 = 0.009	0.78 mPa·s
313.15 K, 101 kPa, x1 = 0.01	0.83 mPa·s and 0.872 mPa·s and 0.907 mPa·s
313.15 K, 101 kPa, x1 = 0.018	0.994 mPa·s
313.15 K, 101 kPa, x1 = 0.02	0.958 mPa·s
318.15 K, 100 kPa, x2 = 0.013	12.84 mPa·s
318.15 K, 100 kPa, x2 = 0.037	12.51 mPa·s
318.15 K, 100 kPa, x2 = 0.038	12.4 mPa·s
318.15 K, 100 kPa, x2 = 0.075	12.37 mPa·s
318.15 K, 101 kPa, x1 = 0.002	0.612 mPa·s
318.15 K, 101 kPa, x1 = 0.004	0.621 mPa·s
318.15 K, 101 kPa, x1 = 0.005	0.654 mPa·s
318.15 K, 101 kPa, x1 = 0.007	0.688 mPa·s
318.15 K, 101 kPa, x1 = 0.009	0.729 mPa·s
318.15 K, 101 kPa, x1 = 0.01	0.779 mPa·s and 0.821 mPa·s and 0.864 mPa·s
318.15 K, 101 kPa, x1 = 0.018	0.949 mPa·s
318.15 K, 101 kPa, x1 = 0.02	0.906 mPa·s
323.15 K, 100 kPa, x2 = 0.013	10.85 mPa·s
323.15 K, 100 kPa, x2 = 0.037	10.58 mPa·s and 9.873 mPa·s
323.15 K, 100 kPa, x2 = 0.038	10.49 mPa·s
323.15 K, 100 kPa, x2 = 0.075	10.44 mPa·s
323.15 K, 100 kPa, x2 = 0.082	10.35 mPa·s
323.15 K, 101 kPa, x1 = 0.002	0.555 mPa·s
323.15 K, 101 kPa, x1 = 0.004	0.571 mPa·s
323.15 K, 101 kPa, x1 = 0.005	0.587 mPa·s
323.15 K, 101 kPa, x1 = 0.007	0.619 mPa·s
323.15 K, 101 kPa, x1 = 0.009	0.667 mPa·s
323.15 K, 101 kPa, x1 = 0.01	0.707 mPa·s and 0.747 mPa·s and 0.78 mPa·s
323.15 K, 101 kPa, x1 = 0.018	0.869 mPa·s
323.15 K, 101 kPa, x1 = 0.02	0.828 mPa·s
